# Laboratory results: article PMC7520419 (The AAPS Journal, 2020)
# Counter-ions that a name gives are not always drawn. Like-named read-outs stand apart in the source and are kept apart here.
# Legend:
# [1] = PBPK food effect modeling (Simcyp V17.1 and/or GastroPlus V9.5; Model 1 / Model 2); design: species or system human
# [2] = design: Food Effect (graded symbols): key to the marks not given beside the values; conditions: cited from earlier work
# Caco-2 = conditions: cited from earlier work
# [3] = Solubility measurement in biorelevant media (FaSSIF-V2, FeSSIF-V2); conditions: for solubility: 37 °C, thermodynamic from solid
# Experimental: (§1) The solubility of the drug substances was determined in biorelevant media as well as in aqueous buffers at different pH. Fasted state simulated gastric fluid (FaSSGF) ([37]), fasted state simulated intestinal fluid (FaSSIF-V2) ([38]), and fed state simulated intestinal fluid (FeSSIF-V2) ([39]) were prepared according to the instructions provided by Biorelevant (Biorelevant.com Ltd., London, UK). […] For neutral compounds, solubility was determined at pH 2, pH 4, and pH 7.
# (§2) For freely soluble compounds, the extent of solubilization was measured only up to 10 mg/mL.
# [4] = Effective human jejunum permeability (Peff,man) used in the PBPK model; type: in vitro ADME
# Experimental: Permeation rates of the compounds, including reference compounds, were measured in the apical-to-basolateral (AB) direction. The donor and receiver wells were sampled immediately after application of the compound to the donor well to determine baseline concentrations, and again after 1 h. Quantification was done using high-performance liquid chromatography combined with mass spectrometry (HPLC-MS/MS) analysis and monolayer integrity was verified by analyzing the receiver samples for LuY fluorescence in a plate reader.
# [5] = Solubility measurement in aqueous buffer solutions; conditions: for solubility: pH 6.5, aqueous buffer, thermodynamic from solid
# Experimental: as §1, §2
# [6] = design: method as in Table I reference column; conditions: not generated within this working group; ref Table I; cited from earlier work
# [7] = not generated within this working group; ref Table I; cited from earlier work
# [8] = Model 1, fasted, ref published clinical data (Table I)
# [9] = Model 1, fed, ref published clinical data (Table I)
# [10] = Model 1, ref published clinical data (Table I)
# [11] = Model 2, fasted, ref published clinical data (Table I)
# [12] = Model 2, fed, ref published clinical data (Table I)
# [13] = Model 2, ref published clinical data (Table I)
# [14] = clinically observed PK change (AUC, Cmax) fed vs fasted, compiled by literature search
# [15] = not generated within this working group, ref Table I
# [16] = FaSSIF-V2 (fasted state simulated intestinal fluid), FaSSIF solubility
# [17] = FeSSIF-V2 (fed state simulated intestinal fluid), FeSSIF solubility
# [18] = direction, AUC and/or Cmax ratio fed to fasted, BE criteria 0.8–1.25, ref drug label
# Throughout, for Observed AUC(0-inf) Fasted: test concentration or dose not given here.
# Throughout, for Observed AUC(0-inf) Fed: test concentration or dose not given here.
# Throughout, for Observed Cmax Fasted: test concentration or dose not given here.
# Throughout, for Observed Cmax Fed: test concentration or dose not given here.
SMILES,AUC Ratio of Ratios (Sim'd / Obs'd) ([1]; Model 1),Cmax Ratio of Ratios (Sim'd / Obs'd) ([1]; Model 1),AUC Ratio of Ratios (Sim'd / Obs'd) ([1]; Model 2),Cmax Ratio of Ratios (Sim'd / Obs'd) ([1]; Model 2),"Observed AUC(0-inf) Fasted [2, 8] [ng·h/mL]","Observed Cmax Fasted [2, 8] [ng/mL]","Observed AUC(0-inf) Fed [2, 9] [ng·h/mL]","Observed Cmax Fed [2, 9] [ng/mL]","Observed AUC Ratios (Fed/Fasted) [2, 10]","Observed Cmax Ratios (Fed/Fasted) [2, 10]","Observed AUC(0-inf) Fasted [2, 11] [ng·h/mL]","Observed Cmax Fasted [2, 11] [ng/mL]","Observed AUC(0-inf) Fed [2, 12] [ng·h/mL]","Observed Cmax Fed [2, 12] [ng/mL]","Observed AUC Ratios (Fed/Fasted) [2, 13]","Observed Cmax Ratios (Fed/Fasted) [2, 13]","Food Effect [2, 14]","pKa (pKa; pKa (b, basic))",Apparent permeability (Caco-2) (Caco-2; [15]),"Food Effect [2, 18]",other results
CN/C(=N/CCSCc1nc[nH]c1C)NC#N [Cimetidine],1.14,0.87,1.19,1.10,4880,900,4150,810,0.85,0.90,5350,890,4580,800,0.86,0.90,None (none if no significant change in AUC and Cmax with food),6.9,5.4 (Caco-2)^^ × 10^−6 cm/s,–,"solubility [3, 16]: 22000 µg/mL; solubility [3, 17]: 21500 µg/mL"
Cl.O=C1Cc2cc(CCN3CCN(c4nsc5ccccc45)CC3)c(Cl)cc2N1 [Ziprasidone HCl],–,–,1.05,0.88,–,–,–,–,–,–,–,–,–,–,–,–,–,–,–,–,"Effective permeability [4]: 230 ×10⁻⁶ cm/s; Food Effect (graded symbols) ([2]; human, in vivo): ++; Observed AUC Ratios (Fed/Fasted) ([2]; human, in vivo): 2.01; Observed AUC(0-inf) Fasted ([2]; human, in vivo): 950 ng·h/mL; Observed AUC(0-inf) Fed ([2]; human, in vivo): 1910 ng·h/mL; Observed Cmax Fasted ([2]; human, in vivo): 84 ng/mL; Observed Cmax Fed ([2]; human, in vivo): 165 ng/mL; Observed Cmax Ratios (Fed/Fasted) ([2]; human, in vivo): 1.96; Solubility at pH 6.5 ([5]; room temperature): 1 μg/ml; Apparent permeability (Caco-2) (Caco-2; Caco-2): 12.3 (Caco-2)^^ × 10^−6 cm/s; FaSSIF solubility ([3]; 37°C): 4 µg/mL; FeSSIF solubility ([3]; 37°C): 13 µg/mL"
CC1(C)CCC(CN2CCN(c3ccc(C(=O)NS(=O)(=O)c4ccc(NCC5CCOCC5)c([N+](=O)[O-])c4)c(Oc4cnc5[nH]ccc5c4)c3)CC2)=C(c2ccc(Cl)cc2)C1 [Venetoclax],–,–,0.79,0.75,–,–,–,–,–,–,2080,150,7100,500,3.41,3.33,Positive (positive if the ratio of fed > fasted),10.3,–,Positive (positive if the ratio of fed > fasted),"pKa (pKa; pKa (a, acidic)): 3.4; solubility [5]: 6 µg/mL; solubility [3, 16]: 0.0337 µg/mL; solubility [3, 17]: 26.4 µg/mL"
CC(C)(C)c1nc(-c2cccc(NS(=O)(=O)c3c(F)cccc3F)c2F)c(-c2ccnc(N)n2)s1 [Dabrafenib],–,–,–,–,–,–,–,–,–,–,12100,2160,8470,1070,0.70,0.49,–,2.2,–,Negative (negative if ratio fasted > fed),"FaSSIF solubility [6]: 6.2^^ μg/ml; FeSSIF solubility [6]: 6.8^^ μg/ml; pKa (pKa; pKa (a, acidic)): 6.6; solubility [5]: 1 µg/mL"
Cc1[nH]c2ccccc2c1CCNCc1ccc(/C=C/C(=O)NO)cc1 [Panobinostat],1.25,0.61,1.25,1.42,148,17.5,124,9.8,0.84,0.56,128,17.5,108,9.8,0.85,0.56,None (none if no significant change in AUC and Cmax with food),9,11 (Caco-2)^^ × 10^−6 cm/s,None (none if no significant change in AUC and Cmax with food),"Effective permeability ([4]; human, 1 h): 230 ×10⁻⁶ cm/s; FaSSIF solubility [6]: 140^^ μg/ml; FeSSIF solubility [6]: 230^^ μg/ml; pKa (pKa; pKa (a, acidic)): 8.35; Solubility at pH 6.5 [7]: 261^^ μg/ml"
NNC(=O)c1ccncc1 [Isoniazid],1.08,1.48,0.91,1.46,24600,5000,19500,2500,0.79,0.50,18500,5870,14800,2730,0.80,0.47,Negative (negative if ratio fasted > fed),1.8,16 (Caco-2)^^ × 10^−6 cm/s,Negative (negative if ratio fasted > fed),"Effective permeability ([4]; human, 1 h): 400 ×10⁻⁶ cm/s; solubility [5]: 128000 µg/mL"
CC(C)(CO)c1cc2cc(NC(=O)C3(c4ccc5c(c4)OC(F)(F)O5)CC3)c(F)cc2n1C[C@@H](O)CO [Tezacaftor],0.92,1.23,–,–,3970,2340,4360,1890,1.10,0.81,–,–,–,–,–,–,None (none if no significant change in AUC and Cmax with food),–,4.2 (Caco-2)^^ × 10^−6 cm/s,None (none if no significant change in AUC and Cmax with food),FaSSIF solubility [6]: 119^^ μg/ml; FeSSIF solubility [6]: 4783^^ μg/ml; pKa (ionisation state in words) (pKa): Neutral; Solubility at pH 6.5 [7]: 110^^ μg/ml
COCCc1ccc(OCC(O)CNC(C)C)cc1 (stereo not shown) [Metoprolol],–,–,–,–,302,111,426,148,–,–,–,–,–,–,–,–,–,–,–,–,solubility [5]: 17100 µg/mL
CCc1nn(CCCN2CCN(c3cccc(Cl)c3)CC2)c(=O)n1CCOc1ccccc1 [Nefazodone HCl],0.97,0.84,1.47,1.05,1540,301,1240,295,0.80,0.98,1540,301,1240,295,0.80,0.98,–,–,11 (Caco-2) ^^ × 10^−6 cm/s,Negative (negative if ratio fasted > fed),"Effective permeability ([4]; human, 1 h): 220 ×10⁻⁶ cm/s; food effect (FE) direction ([2]; ref drug label): negative FE; pKa (b, basic) (pKa): 6.50b; solubility [5]: 5380 µg/mL; solubility [3, 16]: 1390 µg/mL; solubility [3, 17]: 3100 µg/mL"
Cc1ccc(-c2ncc(Cl)cc2-c2ccc(S(C)(=O)=O)cc2)cn1 [Etoricoxib],1.05,0.97,1.06,1.25,44400,2890,42200,1890,0.95,0.65,44400,2890,42200,1890,0.95,0.65,Negative (negative if ratio fasted > fed),4.5,52.3 (Caco-2)^^ × 10^−6 cm/s,Negative (negative if ratio fasted > fed),"Effective permeability ([4]; human, 1 h): 480 ×10⁻⁶ cm/s; FaSSIF solubility [6]: 67^^ μg/ml; FeSSIF solubility [6]: 95^^ μg/ml; food effect (FE) direction ([2]; ref drug label): negative FE; Solubility at pH 6.5 [7]: 67^^ μg/ml"
